According to article PMC10600890 (ACS Omega, 2023):

How the values were obtained:
[1] = Mouse liver microsomal stability, single 30 min time point; type: in vitro ADME; details: primary mouse liver microsomes (MLM)
[2] = Metabolite ID study of 1i in mouse hepatocytes; type: in vitro ADME; details: 1i incubated 4 h in mouse primary hepatocytes; relative quantity by UV
[3] = In vivo mouse pharmacokinetics; details: male, CD-1, mouse, plasma
[4] = Intrinsic clearance in mouse liver microsomes; type: in vitro ADME
[5] = Intrinsic clearance in primary mouse hepatocytes; type: in vitro ADME; details: male, CD-1, mouse, cryopreserved primary hepatocytes
[6] = Intrinsic clearance in mouse liver S9 fraction; type: in vitro ADME; details: male, CD-1, mouse
mice = assay: Dose ranging study of EA tolerability in mice; type: in vivo, mouse; details: i.p.

With CCC(=O)Nc1cc(Nc2cc(NC3CC3)n3ncc(C#N)c3n2)ccc1C [Compound 1a] the “parent compound remaining after 30 min” value [1] was 40%.
For CCC(=O)Nc1cc(Nc2cc(NC3CC3)n3ncc(C#N)c3n2)ccc1N1CCC[C@H](NC)C1 [Compound 1i, (S)-N-(5-((3-Cyano-7-(cyclopropylamino)pyrazolo[1,5-a]pyrimidin-5-yl)amino)-2-(3-(methylamino)piperidin-1-yl)phenyl)propionamide], the “rel. (%) of peak (metabolite or parent)” value [2] was 53%, the AUC(0-t) ([3]; ip, 10 mg/kg) was 7010 ng·h/mL and the Cmax ([3]; ip, 10 mg/kg) was 4700 ng/mL. The bioavailability ([3]; ip, 10 mg/kg) was 100%, the Cmax ([3]; iv, 1 mg/kg) was 1100 ng/mL and the clearance ([3]; iv, 1 mg/kg) was 36 mL/min/kg. It also gave a CLint scaled [4] of less than 24 mL/min/kg.
CN[C@H]1CCCN(c2ccc(Nc3cc(NC4CC4)n4ncc(C#N)c4n3)cc2NC(C)=O)C1 [Compound 2c, (S)-N-(5-((3-Cyano-7-(cyclopropylamino)pyrazolo[1,5-a]pyrimidin-5-yl)amino)-2-(3-(methylamino)piperidin-1-yl)phenyl)acetamide] showed a CLint scaled at 1 μM [5] of 132 mL/min/kg, an AUC(0-t) ([3]; ip, 10 mg/kg) of 770 ng·h/mL and a Cmax ([3]; ip, 10 mg/kg) of 670 ng/mL. The bioavailability ([3]; ip, 10 mg/kg) was 40%, the half-life ([3]; ip, 10 mg/kg) was 1.5 h and the AUC(0-t) ([3]; iv, 1 mg/kg) was 200 ng·h/mL. It also gave a Cmax ([3]; iv, 1 mg/kg) of 350 ng/mL, a Vd ([3]; iv, 1 mg/kg) of 5.07 L/kg and a clearance ([3]; iv, 1 mg/kg) of 84 mL/min/kg. It also gave a half-life ([3]; iv, 1 mg/kg) of 1.8 h, a CLint scaled [4] of less than 24 mL/min/kg and a CLint scaled [6] of 1 mL/min/kg.
For CN[C@H]1CCN(c2ccc(Nc3cc(NC4CC4)n4ncc(C#N)c4n3)cc2NC(C)=O)C1 [Compound 2e, (S)-N-(5-((3-Cyano-7-(cyclopropylamino)pyrazolo[1,5-a]pyrimidin-5-yl)amino)-2-(3-(methylamino)pyrrolidin-1-yl)phenyl)acetamide], the CLint scaled at 1 μM [5] was 69 mL/min/kg, the AUC(0-t) ([3]; ip, 10 mg/kg) was 1300 ng·h/mL and the Cmax ([3]; ip, 10 mg/kg) was 1500 ng/mL. For the same compound, the bioavailability ([3]; ip, 10 mg/kg) was 53%, the half-life ([3]; ip, 10 mg/kg) was 1.4 h and the AUC(0-t) ([3]; iv, 1 mg/kg) was 250 ng·h/mL. The Cmax ([3]; iv, 1 mg/kg) was 810 ng/mL, the Vd ([3]; iv, 1 mg/kg) was 2.67 L/kg and the clearance ([3]; iv, 1 mg/kg) was 69 mL/min/kg. For the same compound, the half-life ([3]; iv, 1 mg/kg) was 1.2 h, the CLint scaled [4] was 27 mL/min/kg and the CLint scaled [6] was 4 mL/min/kg.
For C=C(CC)C(=O)c1ccc(OCC(=O)O)c(Cl)c1Cl [EA, ethacrynic acid], the “doses that resulted in clinical symptoms including death” value (mice) was no less than 100 mg/kg.
